Test system: Sprague-Dawley rats
Assay: Single oral gavage dose toxicity study in SD rats
Assay type: in vivo
Settings: for Mortality: Day 1-7; for External Gross Observation: No gross findings (animals of 3) / Internal Gross Observation: No gross findings (animals of 3): Sprague-Dawley, 7 day
From the text: The protocol and procedures involving the care and use of animals in this study was reviewed and approved by IACUC of QuBEST BIO prior to conduct (Approval no.: QBSIACUC-A18122). During the study, the care and use of animals will be conducted in accordance with all applicable guidelines of Animal Welfare Act. Eleven specific pathogen-gree Sprague-Dawley rats (~6 weeks old) were obtained from SAMTAKO Ltd. (Osan, Korea) and nine rats were used for the study. […] Food was withheld for a further 3–4 h after dosing. Each dose was based on the most recent body weight of each animal and the dose volume was […]. The dosing day was designated as Day 1. All animals were observed twice daily for mortality and moribundity during the study. A clinical observation was performed for all animals at the time of dosing and approximately 1, 2, and 4 h post-dose on dosing day, and once daily during 7-day observation period. Observations were included, but are not limited to, changes in the skin, fur, eyes and mucous membrane; respiratory, circulatory, autonomic and central nervous system function; somatomotor activity and behavior patterns. Individual body weights were measured for all animals on the day of animal receipt, randomization, prior to dosing start (Day 1) and study period (Days 4 and 7). Those animals survived on completion of the 7-day observation period were weighed body weight prior to necropsy and CO2 inhalation anesthesia and exsanguinated from the abdominal aorta. In order to avoid autolytic change, a complete gross pathology examination of the carcass was performed as soon as possible after euthanasia of all animals. Necropsy was consisted of an external examination, including identification of all clinically recorded lesions, as well as a detailed internal examination. Toxicity studies were performed by QuBEST BIO Co., Ltd (Yongin, Korea).
The objective of this study was to investigate the potential acute toxicity or approximate lethal dose of SLC-D011 following a single oral gavage administration to the SD rats.
The study group is detailed in Text Table 1.
Text Table 1. Study Group
The following parameters were evaluated: mortality (twice daily), clinical signs (1, 2, and 4 ho urs post-dose on dosing day, and once daily during 7-day period), body weights (on Days 1, 4 and 7), and […]
Mortality and Clinical Observation […]
The oral gavage route was selected since it is the intended route of administration in humans. […]
The study groups and dose level were assigned as below after consultation with the Sponsor. […]
After overnight fasting (approximately 16 hours, food but not water should be withheld overnight), test article formulations were dosed using a plastic disposable feeding needle attached to a plastic disposable syringe. Food was withheld for a further 3~4 hours after dosing. Each dose was based on the most recent body weight of each animal and the dose volume was 10 mL/kg. The dosing day was designated as study Day 1.
All animals were observed twice daily [once (am) on weekend and holiday] for mortality and moribundity during the study.
A clinical observation was performed for all animals at the time of dosing and approximately 1, 2 and 4 hours post-dose on dosing day, and once daily during 7-day observation period.

[1] = female, rat, in vivo, 500 mg/kg

CC1(C)Oc2cc3oc(=O)ccc3cc2C[C@@H]1OC/C=C/c1ccccc1 [SLC-D011]
Mortality (female rats, 500 mg/kg): 0/3 | Mortality (female rats, 2,000 mg/kg): 0/3 | External Gross Observation: No gross findings (animals of 3) [1]: 3 | Internal Gross Observation: No gross findings (animals of 3) [1]: 3 | Mortality (male rats, 500 mg/kg): 0/3 | Mortality (male rats, 2,000 mg/kg): 0/3 | External Gross Observation: No gross findings (animals of 3) (male, rat, in vivo, 500 mg/kg): 3 | Internal Gross Observation: No gross findings (animals of 3) (male, rat, in vivo, 500 mg/kg): 3 | Clinical Observation (rat, in vivo, 500 mg/kg): Appears Normal | Tolerability (single oral gavage at 500 and 2,000 mg/kg): well tolerated | Approximate lethal dose (ALD) (single oral gavage, both sexes): > 2,000 mg/kg

From PMC7782499, “Progerinin, an optimized progerin-lamin A binding inhibitor, ameliorates premature senescence phenotypes of Hutchinson-Gilford progeria syndrome” (Communications Biology, 2021)
